One assay deals with BRD4 protein (Homo sapiens (Human), UniProt O60885). In words: BRD4 protein degradation inducing action in cancer cells (immunofluorescence, Operetta). It counts as cell-based. Conditions: LNCaP cells, 6 hr treatment, fluorescence intensity. Summed up: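 LNCaP prostate cancer cells in 10% FBS/RPMI1640 were exposed to compound for 6 hr at 37° C, then fixed, permeabilized and immunostained for BRD4 with Alexa Fluor 488 or 546 secondary antibodies plus Hoechst nuclear stain. Fluorescence was read by high-content imaging; DC50 is the concentration giving 50% of untreated signal, interpolated linearly between bracketing points.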

The subject of assay [1] is human prostate cancer LNCaP cells. In words: Cytotoxic action on cancer cells (WST-8, 96 hr). It counts as cell-based. Conditions: Homo sapiens, LNCaP, 96 h, read-out: LNCaP cytotoxic activity: IC50. Summed up: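 Viable cell number, measured by WST-8, is compared with compound-free cultures after treatment. Cells are kept in 10% FBS/RPMI1640 at 37° C under 5% CO2, and IC50 comes from the line joining the two survival rates that bracket 50%.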
For orientation: Tetrazolium assays rely on reduction of a dye to a coloured formazan, in cell work by metabolically active cells.

In the case of `Cc1ncsc1-c1ccc([C@H](C)NC(=O)[C@@H]2C[C@@H](O)CN2C(=O)[C@@H](NC(=O)c2cc(F)c(-c3ccc(C4=N[C@@H](C)c5nnc(C)n5-c5sc(C)c(C)c54)cc3)cc2Cl)C(C)(C)C)cc1` [Example 204, (2S,4R)-1-[(2S)-2-({5-chloro-2-fluoro-4′-[(6S)-2,3,6,9-tetramethyl-6H-thieno[3,2-f][1,2,4]triazolo[4,3-a] [1,4]diazepin-4-yl][1,1′-biphenyl]-4-carbonyl}amino)-3,3-dimethylbutanoyl]-4-hydroxy-N-{(1S)-1-[4-(4-methyl-1,3-thiazol-5-yl)phenyl]ethyl}pyrrolidine-2-carboxamide], the 50% degradation concentration (DC50) (commonly the midpoint of the concentration-degradation curve) on BRD4 protein was 0.51 nM. Moreover, in assay [1], the 50% inhibitory concentration (IC50) (in general, the concentration that inhibits the measured activity by half) turned out to be 0.32 nM.
For `COC(=O)C[C@@H]1N=C(c2ccc(-c3ccc4cc(C(=O)N[C@H](C(=O)N5C[C@H](O)C[C@H]5C(=O)N[C@@H](C)c5ccc(-c6scnc6C)cc5)C(C)(C)C)oc4c3)cc2)c2c(sc(C)c2C)-n2c(C)nnc21` [Example 164, methyl [(6S)-4-{4-[2-({(2S)-1-[(2S,4R)-4-hydroxy-2-({(1S)-1-[4-(4-methyl-1,3-thiazol-5-yl)phenyl]ethyl}carbamoyl)pyrrolidin-1-yl]-3,3-dimethyl-1-oxobutan-2-yl}carbamoyl)-1-benzofuran-6-yl]phenyl}-2,3,9-trimethyl-6H-thieno[3,2-f][1,2,4]triazolo[4,3-a][1,4]diazepin-6-yl]acetate], half-maximal degradation on BRD4 protein (DC50) was put at 0.066 nM. The IC50 in assay [1] stood at 0.077 nM.
For `Cc1ncsc1-c1ccc([C@H](C)NC(=O)[C@@H]2C[C@@H](O)CN2C(=O)[C@@H](NC(=O)CCCCc2ccc(C3=N[C@@H](C)c4nnc(C)n4-c4sc(C)c(C)c43)cc2)C(C)(C)C)cc1` [Example 192, (2S,4R)-1-{(2S)-3,3-dimethyl-2-[(5-{4-[(6S)-2,3,6,9-tetramethyl-6H-thieno[3,2-f][1,2,4]triazolo[4,3-a] [1,4]diazepin-4-yl]phenyl}pentanoyl)amino]butanoyl}-4-hydroxy-N-{(1S)-1-[4-(4-methyl-1,3-thiazol-5-yl)phenyl]ethyl}pyrrolidine-2-carboxamide], in that order: 0.77 nM and 0.46 nM.
For the molecule `Cc1ncsc1-c1ccc([C@H](C)NC(=O)[C@@H]2C[C@@H](O)CN2C(=O)[C@@H](NC(=O)COc2ccc(-c3ccc(C4=N[C@@H](C)c5nnc(C)n5-c5sc(C)c(C)c54)cc3)cc2C#N)C(C)(C)C)cc1` [Example 16, (2S,4R)-1-{(2S)-2-[2-({3-cyano-4′-[(6S)-2,3,6,9-tetramethyl-6H-thieno[3,2-f][1,2,4]triazolo[4,3-a] [1,4]diazepin-4-yl][1,1′-biphenyl]-4-yl}oxy)acetamido]-3,3-dimethylbutanoyl}-4-hydroxy-N-{(1S)-1-[4-(4-methyl-1,3-thiazol-5-yl)phenyl]ethyl}pyrrolidine-2-carboxamide], half-maximal degradation at BRD4 protein (DC50) was put at 0.53 nM. In addition, the concentration for half-maximal inhibition (IC50) in assay [1] is 0.29 nM.
As to `COC(=O)C[C@@H]1N=C(c2ccc(-c3ccc(C(=O)N[C@H](C(=O)N4C[C@H](O)C[C@H]4C(=O)N[C@@H](CO)c4ccc(-c5scnc5C)cc4)C(C)(C)C)cc3)cc2)c2c(sc(C)c2C)-n2c(C)nnc21` [Example 215, methyl {(6S)-4-[4′-({(2S)-1-[(2S,4R)-4-hydroxy-2-({(1R)-2-hydroxy-1-[4-(4-methyl-1,3-thiazol-5-yl)phenyl]ethyl}carbamoyl)pyrrolidin-1-yl]-3,3-dimethyl-1-oxobutan-2-yl}carbamoyl)[1,1′-biphenyl]-4-yl]-2,3,9-trimethyl-6H-thieno[3,2-f][1,2,4]triazolo[4,3-a][1,4]diazepin-6-yl}acetate], half-maximal degradation at BRD4 protein (DC50) was put at 0.33 nM. Also, the IC50 in assay [1] was 0.31 nM.
The molecule `COC(=O)C[C@@H]1N=C(c2ccc(-c3ccc(OCC(=O)N[C@H](C(=O)N4C[C@H](O)C[C@H]4C(=O)N[C@@H](C)c4ccc(-c5scnc5C)cc4)C(C)(C)C)cc3OC(F)(F)F)cc2)c2c(sc(C)c2C)-n2c(C)nnc21` [Example Compound 75, methyl [(6S)-4-{4′-[2-({(2S)-1-[(2S,4R)-4-hydroxy-2-({(1S)-1-[4-(4-methyl-1,3-thiazol-5-yl)phenyl]ethyl}carbamoyl)pyrrolidin-1-yl]-3,3-dimethyl-1-oxobutan-2-yl}amino)-2-oxoethoxy]-2′-(trifluoromethoxy)[1,1′-biphenyl]-4-yl}-2,3,9-trimethyl-6H-thieno[3,2-f] [1,2,4]triazolo[4,3-a][1,4]diazepin-6-yl]acetate] yielded a half-maximal degradation concentration (DC50) at BRD4 protein of 0.75 nM. Also, the concentration for half-maximal inhibition (IC50) in assay [1] is 0.39 nM.
For `COC(=O)C[C@@H]1N=C(c2ccc(-c3ccc(OCC(=O)N[C@H](C(=O)N4C[C@H](O)C[C@H]4C(=O)N[C@@H](C)c4ccc(-c5scnc5C)cc4)C(C)(C)C)cc3)cc2)c2c(sc(C)c2C)-n2c(C)nnc21` [Example 15, methyl [(6S)-4-{4′-[2-({(2S)-1-[(2S,4R)-4-hydroxy-2-({(1S)-1-[4-(4-methyl-1,3-thiazol-5-yl)phenyl]ethyl}carbamoyl)pyrrolidin-1-yl]-3,3-dimethyl-1-oxobutan-2-yl}amino)-2-oxoethoxy][1,1′-biphenyl]-4-yl}-2,3,9-trimethyl-6H-thieno[3,2-f][1,2,4]triazolo[4,3-a][1,4]diazepin-6-yl]acetate], in that order: 0.066 nM and 0.083 nM.
`Cc1ncsc1-c1ccc([C@H](C)NC(=O)[C@@H]2C[C@@H](O)CN2C(=O)[C@@H](NC(=O)COc2ccc(-c3ccc(C4=NC(O)c5nnc(C)n5-c5sc(C)c(C)c54)cc3)cc2)C(C)(C)C)cc1` (stereo partly drawn) [Example 30, (2S,4R)-4-hydroxy-1-[(2S)-2-(2-{[4′-(6-hydroxy-2,3,9-trimethyl-6H-thieno[3,2-f][1,2,4]triazolo[4,3-a][1,4]diazepin-4-yl)[1,1′-biphenyl]-4-yl]oxy}acetamido)-3,3-dimethylbutanoyl]-N-{(1S)-1-[4-(4-methyl-1,3-thiazol-5-yl)phenyl]ethyl}pyrrolidine-2-carboxamide]: it took 0.43 nM to reach half-maximal degradation on BRD4 protein (DC50). Further, the half-inhibitory concentration (IC50) in assay [1] came to 0.99 nM.
In the case of `COC(=O)C[C@@H]1N=C(c2ccc(N3CC[C@@H](OCC(=O)N[C@H](C(=O)N4C[C@H](O)C[C@H]4C(=O)N[C@@H](C)c4ccc(-c5scnc5C)cc4)C(C)(C)C)C3)cc2)c2c(sc(C)c2C)-n2c(C)nnc21` [Example Compound 69, methyl [(6S)-4-(4-{(3R)-3-[2-({(2S)-1-[(2S,4R)-4-hydroxy-2-({(1S)-1-[4-(4-methyl-1,3-thiazol-5-yl)phenyl]ethyl}carbamoyl)pyrrolidin-1-yl]-3,3-dimethyl-1-oxobutan-2-yl}amino)-2-oxoethoxy]pyrrolidin-1-yl}phenyl)-2,3,9-trimethyl-6H-thieno[3,2-f][1,2,4]triazolo[4,3-a][1,4]diazepin-6-yl]acetate], it took 0.15 nM to reach half-maximal degradation at BRD4 protein (DC50). The IC50 in assay [1] is 0.33 nM.
`CC(=O)NC1N=C(c2ccc(-c3ccc(OCC(=O)N[C@H](C(=O)N4C[C@H](O)C[C@H]4C(=O)N[C@@H](C)c4ccc(-c5scnc5C)cc4)C(C)(C)C)cc3)cc2)c2c(sc(C)c2C)-n2c(C)nnc21` (stereo partly drawn) [Example 34, (2S,4R)-1-[(2S)-2-(2-{[4′-(6-acetamido-2,3,9-trimethyl-6H-thieno[3,2-f][1,2,4]triazolo[4,3-a][1,4]diazepin-4-yl) [1,1′-biphenyl]-4-yl]oxy}acetamido)-3,3-dimethylbutanoyl]-4-hydroxy-N-{(1S)-1-[4-(4-methyl-1,3-thiazol-5-yl)phenyl]ethyl}pyrrolidine-2-carboxamide] gave a DC50 on BRD4 protein of 0.098 nM. Moreover, the half-inhibitory concentration (IC50) in assay [1] was found to be 0.72 nM.
Molecule `COC(=O)C[C@@H]1N=C(c2ccc(-c3ccc(C(=O)N[C@@H](C)C(=O)N[C@H](C(=O)N4C[C@H](O)C[C@H]4C(=O)N[C@@H](C)c4ccc(-c5scnc5C)cc4)C(C)(C)C)cc3)cc2)c2c(sc(C)c2C)-n2c(C)nnc21` [Example Compound 91, methyl [(6S)-4-(4′-{[(2S)-1-({(2S)-1-[(2S,4R)-4-hydroxy-2-({(1S)-1-[4-(4-methyl-1,3-thiazol-5-yl)phenyl]ethyl}carbamoyl)pyrrolidin-1-yl]-3,3-dimethyl-1-oxobutan-2-yl}amino)-1-oxopropan-2-yl]carbamoyl}[1,1′-biphenyl]-4-yl)-2,3,9-trimethyl-6H-thieno[3,2-f] [1,2,4]triazolo[4,3-a][1,4]diazepin-6-yl]acetate] had a DC50 at BRD4 protein of 0.77 nM. In assay [1], the IC50 is 0.54 nM.
Turning to `COC(=O)C[C@@H]1N=C(c2ccc(-c3ccc4sc(C(=O)N[C@H](C(=O)N5C[C@H](O)C[C@H]5C(=O)N[C@@H](C)c5ccc(-c6scnc6C)cc5)C(C)(C)C)nc4c3)cc2)c2c(sc(C)c2C)-n2c(C)nnc21` [Example 179, methyl [(6S)-4-{4-[2-({(2S)-1-[(2S,4R)-4-hydroxy-2-({(1S)-1-[4-(4-methyl-1,3-thiazol-5-yl)phenyl]ethyl}carbamoyl)pyrrolidin-1-yl]-3,3-dimethyl-1-oxobutan-2-yl}carbamoyl)-1,3-benzothiazol-5-yl]phenyl}-2,3,9-trimethyl-6H-thieno[3,2-f][1,2,4]triazolo[4,3-a][1,4]diazepin-6-yl]acetate], the half-maximal degradation concentration (DC50) on BRD4 protein worked out at 0.11 nM. The 50% inhibitory concentration (IC50) in assay [1] was determined as 0.21 nM.
The molecule `COC(=O)C[C@@H]1N=C(c2ccc(-c3ccc(OCC(=O)N[C@H](C(=O)N4C[C@H](O)C[C@H]4C(=O)N[C@@H](C)c4ccc(-c5scnc5C)cc4)C(C)(C)C)c(CO)c3)cc2)c2c(sc(C)c2C)-n2c(C)nnc21` [Example 154, methyl [(6S)-4-{3′-(hydroxymethyl)-4′-[2-({(2S)-1-[(2S,4R)-4-hydroxy-2-({(1S)-1-[4-(4-methyl-1,3-thiazol-5-yl)phenyl]ethyl}carbamoyl)pyrrolidin-1-yl]-3,3-dimethyl-1-oxobutan-2-yl}amino)-2-oxoethoxy][1,1′-biphenyl]-4-yl}-2,3,9-trimethyl-6H-thieno[3,2-f][1,2,4]triazolo[4,3-a][1,4]diazepin-6-yl]acetate] came in with a DC50 at BRD4 protein of 0.42 nM. In assay [1], the IC50 was determined as 0.45 nM.

Values taken from patent US11542273B2, “Amide compound having bet proteolysis-inducing action and medicinal application thereof” (MITSUBISHI TANABE PHARMA CORPORATION, priority 2018, dated 2023).
